Results: paper PMC2792609, “Effect of methomyl on hepatic mixed function oxidases in rats” (Indian Journal of Pharmacology, 2008)

Tests used:
[1] = test system: Aminopyrine N-demethylase; experiment: Hepatic microsomal aminopyrine N-demethylase activity; assay type: in vivo, rat
Description: Adult male rats (weighing 200-230 g) were divided into four groups of six animals each. Group 1 received an equivalent amount of saline and served as control. Animals from group 2, 3, and 4 were given methomyl 1, 2, and 4 mg/kg body weight i.p. respectively, between 8: 00 a.m. and 9:00 a.m., for three consecutive days. In the second set of experiments, adult male rats were divided into four groups. Animals from group 2, 3, and 4 were injected with 4 mg/kg body weight methomyl for one, three, and five successive days. The volume injected into the rats of body weight 200 g was 1 ml. In another experiment, adult female rats and old male rats (weighing 350-450 g, 8 months old) were divided into two groups of six animals each. Group 2 of each category received methomyl (4 mg/kg body weight, i.p., for three successive days), and group 1 of each category received an equivalent amount of saline and served as the control group.
The rats were sacrificed by cervical dislocation, 24 hours after the last dose. Their livers were perfused in situ with ice cold 1.15% KCl containing 0.05 mM EDTA, rapidly excised, blotted dry, weighed, minced and homogenized with two volumes of ice cold 0.25 M sucrose solution, in a Potter-Elvehjem type homogenizer. The homogenate was centrifuged at 10,000 × g for 10 min, in a refrigerated centrifuge (REMI C-24). The microsomes were isolated by the procedure described by of Cinti et al.[4] The microsomal pellet was suspended in phosphate buffer (0.1 M, pH 7.4) and the suspension was used for the microsomal enzyme assays. Microsomal protein content was measured by the Biuret method, using bovine serum albumin as the standard.[5]
The microsomal electron transport components (cytochrome P450 and cytochrome b5) were determined using Hitachi UV-Visible double beam recording spectrophotometer, by the procedure of Omura and Sato.[67] Cytochrome c reductase activity was determined using the method recommended by Masters et al.[8] Aminopyrine N-demethylase activity was assayed according to the procedure described by Schenkman et al.[9] Formaldehyde liberated during N-demethylation was estimated by the procedure described by Nash.[10] Aniline hydroxylase assay was performed using the procedure reported by Govindwar and Dalvi.[11]

Serum cholinesterase = molecular target: T1, Serum cholinesterase (Rattus norvegicus, UniProt Q9JKC1); experiment: Serum cholinesterase activity; assay type: in vivo; conditions: for depression of acetyl cholinesterase activity: 3 days
T1 construct: from tissue; host or cells: rat serum
Description: Adult male rats (weighing 200-230 g) were divided into four groups of six animals each. Group 1 received an equivalent amount of saline and served as control. Animals from group 2, 3, and 4 were given methomyl 1, 2, and 4 mg/kg body weight i.p. respectively, between 8: 00 a.m. and 9:00 a.m., for three consecutive days. In the second set of experiments, adult male rats were divided into four groups. Animals from group 2, 3, and 4 were injected with 4 mg/kg body weight methomyl for one, three, and five successive days. The volume injected into the rats of body weight 200 g was 1 ml. […]
Alanine aminotransferase and aspartate aminotransferase activity was measured using the Reitman and Frankel[12] method. Alkaline phosphatase activity was measured using Span diagnostic kits.[13] Cholinesterase activity was measured using the kinetic test method of Knedel et al.[14]

T1 sequence (Q9JKC1 24-597): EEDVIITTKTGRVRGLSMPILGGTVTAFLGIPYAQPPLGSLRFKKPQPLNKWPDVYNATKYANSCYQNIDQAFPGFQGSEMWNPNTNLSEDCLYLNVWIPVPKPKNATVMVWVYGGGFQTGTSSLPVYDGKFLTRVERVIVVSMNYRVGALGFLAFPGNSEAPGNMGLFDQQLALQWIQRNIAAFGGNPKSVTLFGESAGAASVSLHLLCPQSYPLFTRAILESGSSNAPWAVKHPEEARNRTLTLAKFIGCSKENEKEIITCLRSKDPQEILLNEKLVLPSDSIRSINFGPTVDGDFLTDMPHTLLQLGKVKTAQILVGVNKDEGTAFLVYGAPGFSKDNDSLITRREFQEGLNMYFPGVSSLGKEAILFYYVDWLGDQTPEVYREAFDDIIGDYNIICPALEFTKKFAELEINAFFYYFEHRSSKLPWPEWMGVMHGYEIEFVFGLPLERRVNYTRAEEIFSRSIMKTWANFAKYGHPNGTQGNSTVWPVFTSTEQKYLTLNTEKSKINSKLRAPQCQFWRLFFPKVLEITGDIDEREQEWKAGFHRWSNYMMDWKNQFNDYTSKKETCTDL

For `CNC(=O)ON=C(C)SC` [methomyl, S-methyl-N-(methyl carbomyl)-thioacetimidate], which “decrease in the activity of aminopyrine N-demethylase” value (“decrease in the activity” below) ([1]; adult female rat, 4 mg/kg i.p., three days, vs control) is on record?
The value was 26%.

What about the “Aminopyrine N-demethylase” value ([1]; adult female rats, 4 mg/kg body weight, i.p., three days) of the same compound?
The value was 3.30 nmole of formaldehyde liberated/min/mg microsomal protein.

What about the “Aminopyrine N-demethylase” value ([1]; adult male rats, 1 mg/kg i.p., for 3 days) of the same compound?
Its value is 3.2 nmole of formaldehyde liberated/min/mg microsomal protein.

And the “decrease in the activity” value ([1]; adult male rats, 2 mg/kg i.p., 3 days, vs control)?
The value was 50%.

What about the “Aminopyrine N-demethylase” value ([1]; adult male rats, 2 mg/kg i.p., for 3 days) of the same compound?
Its value is 1.9 nmole of formaldehyde liberated/min/mg microsomal protein.

What about the “decrease in the activity” value ([1]; adult male rats, 4 mg/kg i.p., 3 days, vs control) of the same compound?
Its value is 40%.

What about the “decrease in activity of aminopyrine N-demethylase” value (from here on “decrease in activity”) ([1]; adult male rats, 4 mg/kg i.p., five days, vs control) of the same compound?
The value was 31%.

And the “Aminopyrine N-demethylase” value ([1]; adult male rats, 4 mg/kg i.p., for 3 days)?
Its value is 2.3 nmole of formaldehyde liberated/min/mg microsomal protein.

What about the “decrease in activity” value ([1]; adult male rats, 4 mg/kg i.p., one day, vs control) of the same compound?
The value was 31%.

What about the “decrease in activity” value ([1]; adult male rats, 4 mg/kg i.p., three days, vs control) of the same compound?
The value was 51%.

And the “Aminopyrine N-demethylase” value ([1]; adult rats, 4 mg/kg i.p., 1 day of treatment)?
Its value is 3.11 nmole of formaldehyde liberated/min/mg microsomal protein.

What about the “Aminopyrine N-demethylase” value ([1]; adult rats, 4 mg/kg i.p., 3 days of treatment) of the same compound?
The value was 2.20 nmole of formaldehyde liberated/min/mg microsomal protein.

What about the “Aminopyrine N-demethylase” value ([1]; adult rats, 4 mg/kg i.p., 5 days of treatment) of the same compound?
Its value is 3.09 nmole of formaldehyde liberated/min/mg microsomal protein.

And the “decrease in aminopyrine N-demethylase” value ([1]; old male rat, 4 mg/kg i.p., three days, vs control)?
Its value is 50%.

What about the “Aminopyrine N-demethylase” value ([1]; old male rats, 4 mg/kg body weight, i.p., three days) of the same compound?
The value was 2.26 nmole of formaldehyde liberated/min/mg microsomal protein.

And the Serum cholinesterase (Serum cholinesterase; female rats, 4 mg/kg body weight i.p., for 3 days)?
Its Serum cholinesterase is 844 u/l.

And the “depression of acetyl cholinesterase activity” value (shortened to “depression”) (Serum cholinesterase; female rats, 4 mg/kg i.p.)?
Its value is 66%.

And the Serum cholinesterase (Serum cholinesterase; male rats, 1 mg/kg body weight i.p., for three days)?
The Serum cholinesterase was 1120 u/l.

And the “depression” value (Serum cholinesterase; male rats, 1 mg/kg i.p.)?
Its value is 15%.

What about the Serum cholinesterase (Serum cholinesterase; male rats, 2 mg/kg body weight i.p., for three days) of the same compound?
The Serum cholinesterase was 949 u/l.

What about the “depression” value (Serum cholinesterase; male rats, 2 mg/kg i.p.) of the same compound?
Its value is 28%.

And the Serum cholinesterase (Serum cholinesterase; male rats, 4 mg/kg body weight i.p., for three days)?
Its Serum cholinesterase is 848 u/l.

What about the “depression” value (Serum cholinesterase; male rats, 4 mg/kg i.p.) of the same compound?
Its value is 35%.
